Patent US6608070B1, “2,3-substituted indole compounds as anti-inflammatory and analgesic agents” (priority 1999, dated 2003)
Counter-ions that a name gives are not always drawn.

Row | SMILES | melting point
1 | Cc1cnc(C(=O)c2[nH]c3cc(Cl)ccc3c2CC(=O)O)c(C)c1 [Example 110, [6-Chloro-2-(3,5-dimethylpyridine-2-carbonyl)-1H-indol-3-yl]acetic Acid] | 199 to 200 °C
2 | CCOC(=O)C=Cc1ccc(Cl)cc1NS(=O)(=O)c1ccc(C)cc1 [Example 293, 3-[4-Chloro-2-(toluene-4-sulfonylamino)-phenyl]-acrylic Acid Ethyl Ester] | 124 to 127 °C
3 | Cc1cccnc1C(=O)c1[nH]c2cc(Cl)ccc2c1CC(=O)O [Example 74, [6-Chloro-2-(3-methylpyridine-2-carbonyl)-1H-indol-3-yl]acetic Acid] | 195 to 196 °C
4 | O=C(O)Cc1c(C(=O)c2cccs2)[nH]c2cc(Cl)ccc12 [Example 236, [6-Chloro-2-(2-thienyl)carbonylindol-3-yl]acetic Acid] | 177 to 178 °C
5 | Cc1cnc(C(=O)c2[nH]c3cc(Cl)ccc3c2CC(=O)O)s1 [Example 235, [6Chloro-2-(5-methylthiazole-2-carbonyl)-1H-indol-3-yl]acetic Acid] | 225 to 226 °C
6 | Cc1ccnc(C(=O)c2[nH]c3ccc(Cl)cc3c2CC(=O)NCCO)c1 [Example 269, [5-Chloro-2-(4-methylpyridine-2-carbonyl)-1H-indol-3-yl]-N-(2-hydroxyethyl)acetamide] | 195.9 °C
7 | O=C(O)Cc1c(C(=O)c2cc3ccccc3cn2)[nH]c2ccc(Cl)cc12 [Example 221, [5-Chloro-2-(isoquinoline-3-carbonyl)-1H-indol-3-yl]acetic Acid] | 239 to 240 °C
8 | O=C(O)Cc1c(C(=O)c2ccc(Cl)cc2)[nH]c2cc(Cl)ccc12 (as salt: malonate) [Example 9, [6-Chloro-2-(4-chlorobenzoyl)-1H-indol-3-yl]acetic Acid] | 189 to 190 °C
9 | O=C(O)Cc1c(C(=O)c2ccc(Cl)cn2)[nH]c2cc(Cl)ccc12 [Example 88, [6-Chloro-2-(5-chloropyridine-2-carbonyl)-1H-indol-3-yl]acetic Acid] | 242 to 244 °C
10 | O=C(O)Cc1c(C(=O)c2nccs2)[nH]c2ccc(Cl)cc12 [Example 41, [5-Chloro-2-(thiazole-2-carbonyl)-1H-indol-3-yl]acetic Acid] | 230 to 231 °C

Results, then the compound that gave them:

Row | melting point | SMILES
11 | 209 to 211 °C | CC(C)(C)c1ccnc(C(=O)c2[nH]c3ccc(Cl)cc3c2CC(=O)O)c1 [Example 72, [2-(4-tert-Butylpyridine-2-carbonyl)-5-chloro-1H-indol-3-yl]acetic Acid]
12 | 236 to 237 °C | Cc1ccnc(C(=O)c2[nH]c3ccc(Cl)cc3c2CC(=O)O)c1C [Example 100, [5-Chloro-2-(3,4-dimethylpyridine-2-carbonyl)-1H-indol-3-yl]acetic Acid]
13 | 210 to 212 °C | O=C(O)Cc1c(C(=O)c2cc(CO)ccn2)[nH]c2cc(Cl)ccc12 [Example 96, [6-Chloro-2-[4-(hydroxymethyl)pyridine-2-carbonyl]-1H-indol-3-yl]acetic Acid]
14 | 215 to 216 °C (dec.) | CCc1ccnc(C(=O)c2[nH]c3cc(Cl)ccc3c2CC(=O)O)c1 [Example 58, [6-Chloro-2-(4-ethylpyridine-2-carbonyl)-1H-indol-3-yl]acetic Acid]
15 | 218 to 219 °C | O=C(O)Cc1c(C(=O)c2cc(CO)ccn2)[nH]c2ccc(Cl)cc12 [Example 98, [5-Chloro-2-[4-(hydroxymethyl)pyridine-2-carbonyl]-1H-indol-3-yl]acetic Acid]
